pIC50: −log10 of the molar value.
Target: CK2A1 (CK2α/β) (Homo sapiens, UniProt P68400)
Assay: CK2 kinase assay, CK2A1 (CK2α/β)
Type: biochemical
Conditions: Table A; read-out: CK2A1 (CK2α/β) (IC50)

Chain of CK2A1 (CK2α/β) (P68400 whole entry, species assumed): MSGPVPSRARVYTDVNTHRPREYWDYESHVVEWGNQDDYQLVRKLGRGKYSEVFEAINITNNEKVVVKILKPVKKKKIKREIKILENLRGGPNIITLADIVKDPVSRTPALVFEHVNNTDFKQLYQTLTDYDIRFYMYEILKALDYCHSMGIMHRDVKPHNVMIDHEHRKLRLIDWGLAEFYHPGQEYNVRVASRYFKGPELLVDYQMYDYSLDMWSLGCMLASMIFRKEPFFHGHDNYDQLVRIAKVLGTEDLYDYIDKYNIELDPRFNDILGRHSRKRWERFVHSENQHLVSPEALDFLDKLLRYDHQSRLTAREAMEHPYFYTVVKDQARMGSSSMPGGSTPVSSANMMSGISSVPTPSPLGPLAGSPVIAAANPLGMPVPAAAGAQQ
Chain of CK2A1 (CK2α/β) (P67870 whole entry partner, species assumed): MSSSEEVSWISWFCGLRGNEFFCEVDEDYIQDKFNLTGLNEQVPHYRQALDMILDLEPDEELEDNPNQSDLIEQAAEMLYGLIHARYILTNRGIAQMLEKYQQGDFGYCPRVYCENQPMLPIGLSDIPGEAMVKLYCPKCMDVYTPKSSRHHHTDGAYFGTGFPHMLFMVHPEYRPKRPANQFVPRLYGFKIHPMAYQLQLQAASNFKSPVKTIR

Structure (SMILES)	pIC50
CCNc1nc(Nc2ccc3c(c2)c(C#N)cn3C2CCN(C3CN(C[C@H](C)O)C3)CC2)nn2c(C#N)cnc12 [Example 834, (S)-2-((3-cyano-1-(1-(1-(2-hydroxypropyl)azetidin-3-yl)piperidin-4-yl)-1H-indol-5-yl)amino)-4-(ethylamino)imidazo[2,1-f][1,2,4]triazine-7-carbonitrile]	9.22
CCNc1nc(Nc2ccc3c(c2)c(C#N)cn3C2CCN(C3CN(C4COC4)C3)CC2)nn2c(C#N)cnc12 [Example 835, 2-((3-cyano-1-(1-(1-(oxetan-3-yl)azetidin-3-yl)piperidin-4-yl)-1H-indol-5-yl)amino)-4-(ethylamino)imidazo[2,1-f][1,2,4]triazine-7-carbonitrile]	9.01
CCNc1nc(Nc2ccc3c(c2)c(C#N)cn3C2CCN(C3CN(C(=O)OC)C3)CC2)nn2c(C#N)cnc12 [Example 836, methyl 3-(4-(3-cyano-5-((7-cyano-4-(ethylamino)imidazo[2,1-f][1,2,4]triazin-2-yl)amino)-1H-indol-1-yl)piperidin-1-yl)azetidine-1-carboxylate]	8.84
CCNc1nc(Nc2ccc3c(c2)c(C#N)cn3C2CCN(C3CN(C(C)=O)C3)CC2)nn2c(C#N)cnc12 [Example 837, 2-((1-(1-(1-acetylazetidin-3-yl)piperidin-4-yl)-3-cyano-1H-indol-5-yl)amino)-4-(ethylamino)imidazo[2,1-f][1,2,4]triazine-7-carbonitrile]	8.62
CCNc1nc(Nc2cc(C#N)cc(N3CC[C@@H]4[C@@H](C3)OC(=O)N4C3COC3)c2Cl)nn2c(C#N)cnc12 [Example 839, 2-((2-chloro-5-cyano-3-((3aR,7aR)-1-(oxetan-3-yl)-2-oxohexahydrooxazolo[5,4-c]pyridin-5(2H)-yl)phenyl)amino)-4-(ethylamino)imidazo[2,1-f][1,2,4]triazine-7-carbonitrile]	8.92
CCNc1nc(Nc2cc(C#N)cc(N3CC[C@H]4[C@H](C3)OC(=O)N4C3COC3)c2Cl)nn2c(C#N)cnc12 [Example 840, 2-((2-chloro-5-cyano-3-((3aS,7aS)-1-(oxetan-3-yl)-2-oxohexahydrooxazolo[5,4-c]pyridin-5(2H)-yl)phenyl)amino)-4-(ethylamino)imidazo[2,1-f][1,2,4]triazine-7-carbonitrile]	8.76
CCNc1nc(Nc2cc(C#N)cc(N3CC[C@@H]4[C@@H](C3)OC(=O)N4C3CCOCC3)c2Cl)nn2c(C#N)cnc12 [Example 845]	9.04
CCNc1nc(Nc2cc(C#N)cc(N[C@@H]3CCN(C(=O)OC)C[C@H]3O)c2Cl)nn2c(C#N)cnc12 [Example 846, (3R,4R)-methyl 4-((2-chloro-5-cyano-3-((7-cyano-4-(ethylamino)imidazo[2,1-f][1,2,4]triazin-2-yl)amino)phenyl)amino)-3-hydroxypiperidine-1-carboxylate]	7.76

Source: US9273057B2 (Bristol-Myers Squibb Company, priority 2012, dated 2016)
